Literature values, collected in patent US5763435A, “Sulfate conjugates of ursodeoxycholic acid, and their beneficial use in inflammatory disorders” (priority 1995, dated 1998).

What was measured:
colonic epithelial cell = conditions: in vitro; cited from earlier work
[1] = rat, in vivo; cited from earlier work

| SMILES | Effect on colonic epithelial cell proliferation (in words) (colonic epithelial cell) | Metabolism to 3α,7α-disulfate, 6β-hydroxy 5β-cholanoic acid [1] |
| --- | --- | --- |
| C[C@H](CCC(=O)O)[C@H]1CC[C@H]2[C@@H]3CC[C@@H]4C[C@H](O)CC[C@]4(C)[C@H]3CC[C@]12C [lithocholic acids, lithocholic acid] | comitogenic |  |
| C[C@H](CCC(=O)O)[C@H]1CC[C@H]2[C@@H]3CC[C@@H]4C[C@H](O)CC[C@]4(C)[C@H]3C[C@H](O)[C@]12C [deoxycholic, deoxycholic acid] | comitogenic |  |
| C[C@H](CCC(=O)NCC(=O)O)[C@H]1CC[C@H]2[C@@H]3[C@H](OS(=O)(=O)O)C[C@@H]4C[C@H](OS(=O)(=O)O)CC[C@]4(C)[C@H]3CC[C@]12C [glycochenodeoxycholic acid disulfates] |  | 90% |
| C[C@H](CCC(=O)NCCS(=O)(=O)O)[C@H]1CC[C@H]2[C@@H]3[C@H](OS(=O)(=O)O)C[C@@H]4C[C@H](OS(=O)(=O)O)CC[C@]4(C)[C@H]3CC[C@]12C [taurochenodeoxycholic acid disulfates] |  | 90% |
